The source of these data is PubChem BioAssay AID2060488 (Molecular Pharmacology Branch, DTP, NCI, 2025).

The experiment has as its system 966289-007-R4-J1-PDC complex spheroid viability. The experiment is described as follows: Anticancer human tumor 966289-007-R4-J1-PDC patient-derived pancreatic adenocarcinoma cell line growth inhibition [GQUAD]. As to conditions: for viability, T/C: stronger effect = lower value. An excerpt: DNA G-quadruplex Stabilizer Agents in Combinations in Complex Spheroids
A high-throughput screen of multi-cell type tumor spheroids was designed to identify active combinations of DNA G-quadruplex stabilizer agents and targeted small molecules. Complex spheroids include a stromal component modeled by human endothelial cells (HUVEC) and fibroblasts modeled by human mesenchymal stem cells (MSCs). The concentration ranges selected for each drug and investigational agent were based upon clinically achievable concentrations if the clinical Cmax of the agent was known.
Compounds. The drugs and investigational agents: pidnarulex (CX-5461; NSC782164), APTO-253 (NSC789042), BRACO-19 (NSC847499), peposertib (NSC802822), ceralasertib (NSC780249), elimusertib (NSC800525), camonsertib (NSC841442), AZD-1390 (NSC803789), olaparib (NSC753686), talazoparib (NSC767125), ART-558 (NSC835418), sotorasib (NSC818433), MRTX-1133 (NSC836407), SN-38 (NSC673596), topotecan (NSC609699), etoposide (NSC141540), doxorubicin (NSC123127), gemcitabine (NSC613327), 5-fluorouracil (NSC19893), paclitaxel (NSC125973), vemurafenib (NSC761431), panobinostat (NSC761190), R-306465 (JNJ-16241199; NSC773264), adavosertib (NSC754352), TP-3654 (NSC805149), carboplatin (NSC241240), KSQ-4279 (NSC840948), and staurosporine (NSC755774) were obtained from the National Cancer Institute (NCI) Developmental Therapeutics Program Chemical Repository (34). The FDA-approved anticancer drug set is available from the NCI Developmental Therapeutics Program. […] The stock solutions were prepared in dimethyl sulfoxide (DMSO, Sigma-Aldrich, St. Louis, MO, cat. D2650) at 800-fold the tested concentration and stored at -70 degrees C prior to their use. All drugs and investigational agents were tested over a range starting from a high concentration at or near the clinical Cmax and decreasing in half-log increments. If the clinical Cmax for an agent had not been determined, the highest concentration tested was 10 microM.
2.3 Cell Culture. All cells were maintained in an incubator at 37 degrees C and 5% CO2 with 95% humidity. The PDC lines were cultured according to standard operating procedures established by the NCI PDMR. All PDCs were thawed and cultured in Matrigel-coated flasks prepared with a working solution of 1X Ham's F-12 nutrient mix, without supplementation (Invitrogen, cat. 11765054), 100 U/mL penicillin-streptomycin (Invitrogen, cat. 15140122), and 2.5% Matrigel (Corning Inc., cat. 354248) for the first three passages. The 857933-349-R-J2-PDC line was cultured in 6C/Colon 1B media, which includes advanced DMEM/F-12 (Thermo Fisher Scientific, cat. 12634028), 10 mM HEPES (Thermo Fisher Scientific, cat. 15630080), 1X GlutaMAX supplement (Thermo Fisher Scientific, cat. 35050061), 0.1 mg/mL primocin (InvivoGen, cat. ant-pm-2), 10% defined fetal bovine serum, heat inactivated (HyClone Laboratories Inc., cat. SH30070.03HI), 50% L-WRN conditioned media (ATCC, cat. CRL-3276), 1.25 mM N-Acetyl-L-cysteine (Sigma-Aldrich, cat. A9165), 10 mM nicotinamide (Sigma-Aldrich, cat. N0636), 1X B-27 supplement (Thermo Fisher Scientific, cat. 17504044), 1X N-2 supplement (Thermo Fisher Scientific, cat. 17502048), 10 microM Y-27632 dihydrochloride (Tocris Bioscience, cat. 1254), and 50 ng/mL human EGF recombinant protein (Thermo Fisher Scientific, cat. PHG0311). The 485176-168-R4-J1-PDC line was cultured in Panc media, which includes all 6C/Colon 1B media components plus 100 ng/mL human FGF-10 (Thermo Fisher Scientific, cat. 100-26), 500 nM SB-431542 (Selleckchem, cat. S1067), and gastrin (Tocris, cat. 3006).
[…]

[1] abbreviates: compound alone, run of 03/26/2024.

Several values for one entry are separate records, joined by “and”; a condition that tells them apart may be missing. Identical values can stand only once. Some results are limits rather than exact numbers.
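Also: spheroids exposed to the agents for seven days before readout.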
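For viability, T/C in this document: percent viability relative to DMSO vehicle control wells taken as 100%.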

On to `CC(C)n1c(=O)n(C)c2cnc3cc(F)c(-c4ccc(OCCCN5CCCCC5)nc4)cc3c21`, for which the viability, T/C (commonly the ratio of treated to control) is 101% and 103% and 95.4% (compound 0.0316 µM); 103% and 106% (2×) (compound 0.1 µM); 114% and 106% and 102% (compound 0.316 µM); 107% and 105% and 114% (compound 1 µM); 107% (2×) and 116% (compound 3.16 µM); 86% and 88.6% and 91.8% (compound 10 µM). Further, the IC50 (in general, the midpoint of a concentration-inhibition curve) (curve of compound) was over 10000 nM.
In the case of `CC1COCCN1c1cc(-c2ccnn2C)c2ccnc(-c3ccn[nH]3)c2n1` (stereo not given), the viability, T/C runs as follows: (compound 0.0316 µM) 112% and 106% and 104%; (compound 0.1 µM) 75.1% and 95% and 82.1%; (compound 0.316 µM) 15.9% and 32.8% and 16.8%; (compound 1 µM) 6.65% and 12.3% and 6.94%; (compound 3.16 µM) 4.32% and 6.18% and 4.41%; (compound 10 µM) 3.06% and 4.67% and 3.7%. Further, the IC50 (curve of compound) is 163 nM and 231 nM and 176 nM.
As to `CC1COCCN1c1cc(C2(O)CC3CCC(C2)O3)c2cnn(-c3ccn[nH]3)c2n1` (stereo not given), the viability, T/C was 112% and 111% and 109% (compound 0.0316 µM); 64.2% and 55% and 74.8% (compound 0.1 µM); 16.3% and 13.5% and 20.4% (compound 0.316 µM); 5.75% and 6.02% and 11.2% (compound 1 µM); 4.81% and 4.92% and 6.7% (compound 3.16 µM); 4.35% and 4.17% and 5.99% (compound 10 µM). For the same compound, the IC50 (curve of compound) was 141 nM and 115 nM and 170 nM.
For `CC1COCCN1c1cc(C2(S(C)(=N)=O)CC2)nc(-c2ccnc3[nH]ccc23)n1` (stereo not given), the viability, T/C is 105% and 101% and 96.9% (compound 0.0316 µM); 104% and 98.3% and 105% (compound 0.1 µM); 109% and 99.3% and 108% (compound 0.316 µM); 95.2% and 103% and 108% (compound 1 µM); 45.6% and 71.7% and 117% (compound 3.16 µM); 6.26% and 10.7% and 7.26% (compound 10 µM). Also, the IC50 (curve of compound) is 2850 nM and 4770 nM and 6110 nM.
Turning to `CC[C@@]1(O)C(=O)OCc2c1cc1n(c2=O)Cc2cc3c(CN(C)C)c(O)ccc3nc2-1`, the viability, T/C is, setting by setting: (compound 0.000999 µM) 88.3% and 105% and 97.2%; (compound 0.00316 µM) 92.3% and 95.7% and 100%; (compound 0.00999 µM) 108% and 105% and 110%; (compound 0.0316 µM) 74.9% and 90.5% and 50.4%; (compound 0.0999 µM) 0.78% and 1.86% and 0.73%; (compound 0.316 µM) 0.62% and 0.47% and 0.41%. Moreover, where the note is “curve of compound”, the IC50 was 46.5 nM and 53.5 nM and 31.9 nM.
With `CCc1c2c(nc3ccc(O)cc13)-c1cc3c(c(=O)n1C2)COC(=O)[C@]3(O)CC`, the viability, T/C by setting is: (compound 0.000999 µM) 21.8% and 23.1% and 26.9%; (compound 0.00316 µM) 0.79% and 0.89% and 0.66%; (compound 0.00999 µM) 0.67% and 0.66% and 0.5%; (compound 0.0316 µM) 0.8% and 0.6% and 0.43%; (compound 0.0999 µM) 0.53% and 0.49% and 0.38%; (compound 0.316 µM) 0.45% and 0.44% and 0.36%. For the same compound, the IC50 (curve of compound) was under 0.999 nM.
As to `CN(C)c1ccc(Nc2c3ccc(NC(=O)CCN4CCCC4)cc3nc3cc(NC(=O)CCN4CCCC4)ccc23)cc1`, the viability, T/C was 104% [middle of 12 runs] (compound 0.0316 µM); 107% [middle of 12 runs] (compound 0.1 µM); 108% [middle of 11 runs] (compound 0.316 µM); 108% [middle of 12 runs] (compound 1 µM); 98.7% [middle of 12 runs] (compound 3.16 µM); 99.8% [middle of 12 runs] (compound 10 µM). For the same compound, under setting [1], the IC50 was over 10000 nM.
On to `COc1ccc([C@@H](O)c2cc(-c3ncnc4cc(N5CCOCC5)ccc34)c(F)cc2Cl)nn1`, for which the viability, T/C by setting is: (compound 0.0316 µM) 103% and 98.9% and 97.2%; (compound 0.1 µM) 92.9% and 100% and 92%; (compound 0.316 µM) 110% and 106% and 105%; (compound 1 µM) 103% (2×) and 108%; (compound 3.16 µM) 113% and 110% and 126%; (compound 10 µM) 90.2% and 103% and 108%. For the same compound, the IC50 (curve of compound) was over 10000 nM.
Regarding `Cc1[nH]c2ccc(F)cc2c1-c1nc2c3cccnc3c3ncccc3c2[nH]1`, the viability, T/C is 104% [middle of 11 runs] (compound 0.0316 µM); 108% [middle of 11 runs] (compound 0.1 µM); 109% [middle of 11 runs] (compound 0.316 µM); 109% [middle of 11 runs] (compound 1 µM); 106% [middle of 11 runs] (compound 3.16 µM); 98.2% [middle of 11 runs] (compound 10 µM). Moreover, the IC50 (compound alone, run of 03/18/2024) was over 10000 nM and the IC50 under setting [1] is over 10000 nM.
In the case of `Cc1[nH]c2ccccc2c1CCNCc1ccc(/C=C/C(=O)NO)cc1`, the viability, T/C was 110% and 92.2% and 99.7% (compound 0.000999 µM); 100% and 103% and 113% (compound 0.00316 µM); 104% and 91% and 101% (compound 0.00999 µM); 100% and 97.8% and 99.5% (compound 0.0316 µM); 31.1% and 30.7% and 17.7% (compound 0.0999 µM); 4.6% and 4.59% and 3.46% (compound 0.316 µM). The IC50 (curve of compound) was 73 nM and 71.1 nM and 63.4 nM.
In the case of `Cn1ncnc1[C@H]1c2n[nH]c(=O)c3cc(F)cc(c23)N[C@@H]1c1ccc(F)cc1`, the viability, T/C runs as follows: (compound 0.000999 µM) 105% and 99.3% and 95.6%; (compound 0.00316 µM) 91.2% and 98.8% and 98.2%; (compound 0.00999 µM) 113% and 105% and 112%; (compound 0.0316 µM) 92.4% and 104% and 99.6%; (compound 0.0999 µM) 48.8% and 72.8% and 46.1%; (compound 0.316 µM) 22.8% and 22.4% and 18%. Also, the IC50 (curve of compound) is 96.1 nM and 168 nM and 91.9 nM.
In the case of `O=C(c1cc(Cc2n[nH]c(=O)c3ccccc23)ccc1F)N1CCN(C(=O)C2CC2)CC1`, the viability, T/C is 111% and 99.1% and 104% (compound 0.0316 µM); 98.8% and 108% and 98.4% (compound 0.1 µM); 109% and 105% and 111% (compound 0.316 µM); 106% and 108% and 112% (compound 1 µM); 67.5% and 82.8% and 61.1% (compound 3.16 µM); 11.2% and 10.4% and 14.9% (compound 10 µM). Besides, under “curve of compound”, the IC50 is 4520 nM and 5320 nM and 4180 nM.
